Each structure is given as a SMILES string.

The first assay concerns HS 578T.
Experiment: not given
The settings on record: 10 μM.
For `CCCn1cc(/C=N/N=C2\C(=O)Nc3ccc(OC(F)(F)F)cc32)c2ccccc21` [Compound 8b], the GI % result is recorded as “– (Only GI % higher than 10% are shown)”.
As to `CCCn1cc(C=NN=C2C(=O)Nc3ccc([N+](=O)[O-])cc32)c2ccccc21` [Compound 8c], the GI % result was “– (Only GI % higher than 10% are shown)”.
On to `CC(C)n1cc(C=NN=C2C(=O)Nc3ccccc32)c2ccccc21` [Compound 9], for which the GI % result is “– (Only GI % higher than 10% are shown)”.

The next assay concerns SK-MEL-5.
Experiment: not given
The following applies: SK-MEL-5, 10 μM.
As for `CCCn1cc(/C=N/N=C2\C(=O)Nc3ccc(OC(F)(F)F)cc32)c2ccccc21` [Compound 8b], the GI % entry is reported as “– (Only GI % higher than 10% are shown)”.
With `CCCn1cc(C=NN=C2C(=O)Nc3ccc([N+](=O)[O-])cc32)c2ccccc21` [Compound 8c], the GI % entry is “– (Only GI % higher than 10% are shown)”.
Consider `CC(C)n1cc(C=NN=C2C(=O)Nc3ccccc32)c2ccccc21` [Compound 9], for which the GI % entry is “– (Only GI % higher than 10% are shown)”.

A further assay has as its system NCI-H322M. Description: NCI SRB screening. The following applies: 10 μM.
`CCCn1cc(/C=N/N=C2\C(=O)Nc3ccc(OC(F)(F)F)cc32)c2ccccc21` [Compound 8b]: the GI % entry was “– (Only GI % higher than 10% are shown)”.
As to `CCCn1cc(C=NN=C2C(=O)Nc3ccc([N+](=O)[O-])cc32)c2ccccc21` [Compound 8c], the GI % result is on record as “– (Only GI % higher than 10% are shown)”.
Regarding `CC(C)n1cc(C=NN=C2C(=O)Nc3ccccc32)c2ccccc21` [Compound 9], the GI % entry is recorded as “– (Only GI % higher than 10% are shown)”.

The subject of a further assay is MDA-MB-231/ATCC.
Experiment: not given
The settings on record: MDA-MB-231, 10 μM.
With `CCCn1cc(/C=N/N=C2\C(=O)Nc3ccc(OC(F)(F)F)cc32)c2ccccc21` [Compound 8b], the GI % result is reported as “– (Only GI % higher than 10% are shown)”.
For `CCCn1cc(C=NN=C2C(=O)Nc3ccc([N+](=O)[O-])cc32)c2ccccc21` [Compound 8c], the GI % entry is given as “– (Only GI % higher than 10% are shown)”.
In turn, `CC(C)n1cc(C=NN=C2C(=O)Nc3ccccc32)c2ccccc21` [Compound 9] returned a GI % of 11%.

The test system of the next assay is TK-10.
Experiment: not given
The settings on record: TK-10, 10 μM.
Regarding `CCCn1cc(/C=N/N=C2\C(=O)Nc3ccc(OC(F)(F)F)cc32)c2ccccc21` [Compound 8b], the GI % entry is reported as “– (Only GI % higher than 10% are shown)”.
Still for that read-out and setting: as for `CCCn1cc(C=NN=C2C(=O)Nc3ccc([N+](=O)[O-])cc32)c2ccccc21` [Compound 8c], the entry is “– (Only GI % higher than 10% are shown)”.
Same read-out and setting: to `CC(C)n1cc(C=NN=C2C(=O)Nc3ccccc32)c2ccccc21` [Compound 9] belongs “– (Only GI % higher than 10% are shown)”.

The test system of a further assay is MALME-3M.
Experiment: not given
The following applies: 10 μM.
For the molecule `CCCn1cc(/C=N/N=C2\C(=O)Nc3ccc(OC(F)(F)F)cc32)c2ccccc21` [Compound 8b], the GI % result is “– (Only GI % higher than 10% are shown)”.
On the same count and under the same terms, as for `CCCn1cc(C=NN=C2C(=O)Nc3ccc([N+](=O)[O-])cc32)c2ccccc21` [Compound 8c], the entry is “– (Only GI % higher than 10% are shown)”.
On the same count and under the same terms, to `CC(C)n1cc(C=NN=C2C(=O)Nc3ccccc32)c2ccccc21` [Compound 9] belongs “– (Only GI % higher than 10% are shown)”.

A further assay relates to UACC-62.
Experiment: not given
The following applies: UACC-62, 10 μM.
Regarding `CCCn1cc(/C=N/N=C2\C(=O)Nc3ccc(OC(F)(F)F)cc32)c2ccccc21` [Compound 8b], the GI % stood at 11%.
Consider `CCCn1cc(C=NN=C2C(=O)Nc3ccc([N+](=O)[O-])cc32)c2ccccc21` [Compound 8c], for which the GI % entry was “– (Only GI % higher than 10% are shown)”.
On the same count and under the same terms, to `CC(C)n1cc(C=NN=C2C(=O)Nc3ccccc32)c2ccccc21` [Compound 9] belongs “– (Only GI % higher than 10% are shown)”.

The next assay has as its system NCI-H460. Kind of assay: NCI SRB screening. It counts as cell-based, human. The settings on record: NCI-H460, 10 μM.
`CCCn1cc(/C=N/N=C2\C(=O)Nc3ccc(OC(F)(F)F)cc32)c2ccccc21` [Compound 8b] registered a GI % of 11%.
On the same count and under the same terms, to `CCCn1cc(C=NN=C2C(=O)Nc3ccc([N+](=O)[O-])cc32)c2ccccc21` [Compound 8c] belongs 19%; to `CC(C)n1cc(C=NN=C2C(=O)Nc3ccccc32)c2ccccc21` [Compound 9], “– (Only GI % higher than 10% are shown)”.

In another assay the test system is A549/ATCC.
Experiment: not given
The following applies: 10 μM.
Take `CCCn1cc(/C=N/N=C2\C(=O)Nc3ccc(OC(F)(F)F)cc32)c2ccccc21` [Compound 8b]: the GI % came out at 28%.
Molecule `CCCn1cc(C=NN=C2C(=O)Nc3ccc([N+](=O)[O-])cc32)c2ccccc21` [Compound 8c] came in with a GI % of 13%.
Take `CC(C)n1cc(C=NN=C2C(=O)Nc3ccccc32)c2ccccc21` [Compound 9]: the GI % result is reported as “– (Only GI % higher than 10% are shown)”.

The subject of another assay is OVCAR-4.
Experiment: not given
The following applies: OVCAR-4, 10 μM.
Take `CCCn1cc(/C=N/N=C2\C(=O)Nc3ccc(OC(F)(F)F)cc32)c2ccccc21` [Compound 8b]: the GI % entry is “– (Only GI % higher than 10% are shown)”.
`CCCn1cc(C=NN=C2C(=O)Nc3ccc([N+](=O)[O-])cc32)c2ccccc21` [Compound 8c]: the GI % entry was “– (Only GI % higher than 10% are shown)”.
In the case of `CC(C)n1cc(C=NN=C2C(=O)Nc3ccccc32)c2ccccc21` [Compound 9], the GI % entry was “– (Only GI % higher than 10% are shown)”.

Another assay has as its system SF-539.
Experiment: not given
The settings on record: SF-539, 10 μM.
Turning to `CCCn1cc(/C=N/N=C2\C(=O)Nc3ccc(OC(F)(F)F)cc32)c2ccccc21` [Compound 8b], the GI % entry was “– (Only GI % higher than 10% are shown)”.
`CCCn1cc(C=NN=C2C(=O)Nc3ccc([N+](=O)[O-])cc32)c2ccccc21` [Compound 8c] had a GI % of 10%.
Still for that read-out and setting: as for `CC(C)n1cc(C=NN=C2C(=O)Nc3ccccc32)c2ccccc21` [Compound 9], the entry is “– (Only GI % higher than 10% are shown)”.

The test system of a further assay is M14. Kind of assay: NCI SRB screening. It counts as cell-based. The following applies: M14, 10 μM.
As for `CCCn1cc(/C=N/N=C2\C(=O)Nc3ccc(OC(F)(F)F)cc32)c2ccccc21` [Compound 8b], the GI % result was “– (Only GI % higher than 10% are shown)”.
As to `CCCn1cc(C=NN=C2C(=O)Nc3ccc([N+](=O)[O-])cc32)c2ccccc21` [Compound 8c], the GI % result was “– (Only GI % higher than 10% are shown)”.
On to `CC(C)n1cc(C=NN=C2C(=O)Nc3ccccc32)c2ccccc21` [Compound 9], for which the GI % result is recorded as “– (Only GI % higher than 10% are shown)”.

The test system of another assay is HCT-15.
Experiment: not given
The following applies: HCT-15, 10 μM.
In the case of `CCCn1cc(/C=N/N=C2\C(=O)Nc3ccc(OC(F)(F)F)cc32)c2ccccc21` [Compound 8b], the GI % worked out at 23%.
As for `CCCn1cc(C=NN=C2C(=O)Nc3ccc([N+](=O)[O-])cc32)c2ccccc21` [Compound 8c], the GI % entry is given as “– (Only GI % higher than 10% are shown)”.
As for `CC(C)n1cc(C=NN=C2C(=O)Nc3ccccc32)c2ccccc21` [Compound 9], the GI % result is “– (Only GI % higher than 10% are shown)”.

For the next assay, the system named is CCRF-CEM.
Experiment: not given
The following applies: 10 μM.
The molecule `CCCn1cc(/C=N/N=C2\C(=O)Nc3ccc(OC(F)(F)F)cc32)c2ccccc21` [Compound 8b] gave a GI % of 52%.
Still for that read-out and setting: as for `CCCn1cc(C=NN=C2C(=O)Nc3ccc([N+](=O)[O-])cc32)c2ccccc21` [Compound 8c], the entry is “– (Only GI % higher than 10% are shown)”; as for `CC(C)n1cc(C=NN=C2C(=O)Nc3ccccc32)c2ccccc21` [Compound 9], “– (Only GI % higher than 10% are shown)”.

The next assay has as its system HOP-92.
Experiment: not given
The settings on record: HOP-92, 10 μM.
As for `CCCn1cc(/C=N/N=C2\C(=O)Nc3ccc(OC(F)(F)F)cc32)c2ccccc21` [Compound 8b], the GI % entry is on record as “– (Only GI % higher than 10% are shown)”.
For `CCCn1cc(C=NN=C2C(=O)Nc3ccc([N+](=O)[O-])cc32)c2ccccc21` [Compound 8c], the GI % came out at 11%.
In turn, `CC(C)n1cc(C=NN=C2C(=O)Nc3ccccc32)c2ccccc21` [Compound 9] displayed a GI % of 14%.

In a further assay the test system is SW-620.
Experiment: not given
The settings on record: SW-620, 10 μM.
For `CCCn1cc(/C=N/N=C2\C(=O)Nc3ccc(OC(F)(F)F)cc32)c2ccccc21` [Compound 8b], the GI % result is reported as “– (Only GI % higher than 10% are shown)”.
In the case of `CCCn1cc(C=NN=C2C(=O)Nc3ccc([N+](=O)[O-])cc32)c2ccccc21` [Compound 8c], the GI % result is recorded as “– (Only GI % higher than 10% are shown)”.
In the case of `CC(C)n1cc(C=NN=C2C(=O)Nc3ccccc32)c2ccccc21` [Compound 9], the GI % result is given as “– (Only GI % higher than 10% are shown)”.

Another assay has as its system OVCAR-8.
Experiment: not given
The settings on record: OVCAR-8, 10 μM.
In the case of `CCCn1cc(/C=N/N=C2\C(=O)Nc3ccc(OC(F)(F)F)cc32)c2ccccc21` [Compound 8b], the GI % is recorded as 15%.
The molecule `CCCn1cc(C=NN=C2C(=O)Nc3ccc([N+](=O)[O-])cc32)c2ccccc21` [Compound 8c] had a GI % of 29%.
The same measure, in the same setting: to `CC(C)n1cc(C=NN=C2C(=O)Nc3ccccc32)c2ccccc21` [Compound 9] belongs “– (Only GI % higher than 10% are shown)”.

Another assay deals with OVCAR-5.
Experiment: not given
The following applies: OVCAR-5, 10 μM.
Take `CCCn1cc(/C=N/N=C2\C(=O)Nc3ccc(OC(F)(F)F)cc32)c2ccccc21` [Compound 8b]: the GI % entry was “– (Only GI % higher than 10% are shown)”.
As to `CCCn1cc(C=NN=C2C(=O)Nc3ccc([N+](=O)[O-])cc32)c2ccccc21` [Compound 8c], the GI % result was “– (Only GI % higher than 10% are shown)”.
Consider `CC(C)n1cc(C=NN=C2C(=O)Nc3ccccc32)c2ccccc21` [Compound 9], for which the GI % result is “– (Only GI % higher than 10% are shown)”.

A further assay relates to SK-MEL-2.
Experiment: not given
The settings on record: SK-MEL-2, 10 μM.
On to `CCCn1cc(/C=N/N=C2\C(=O)Nc3ccc(OC(F)(F)F)cc32)c2ccccc21` [Compound 8b], for which the GI % entry is “– (Only GI % higher than 10% are shown)”.
Take `CCCn1cc(C=NN=C2C(=O)Nc3ccc([N+](=O)[O-])cc32)c2ccccc21` [Compound 8c]: the GI % entry was “– (Only GI % higher than 10% are shown)”.
With `CC(C)n1cc(C=NN=C2C(=O)Nc3ccccc32)c2ccccc21` [Compound 9], the GI % result is listed as “– (Only GI % higher than 10% are shown)”.

Source of the values: article PMC7717600, “Novel [(N-alkyl-3-indolylmethylene)hydrazono]oxindoles arrest cell cycle and induce cell apoptosis by inhibiting CDK2 and Bcl-2: synthesis, biological evaluation and in silico studies” (Journal of Enzyme Inhibition and Medicinal Chemistry, 2020).
